Results: PMC5691054, “An unexpected protein interaction promotes drug resistance in leukemia” (Nature Communications, 2017)
Entries after “also recorded” stand apart in the source; their conditions may differ.

Tests used:
[1] = Antimycin A cytotoxicity in MO7e and ABCC4 KO MO7e cells; assay type: cell-based, Human; settings: human, 0.01 to 1000 μM, CellTiter Glo, triplicate
Method: (§1) The Meg01, MO7e, and ABCC4 KO MO7e cell lines were plated at 1500 cells per well in a 96-well plate. Cells were treated with 10 concentrations of Antimycin A (Santa Cruz) ranging from 0.01 to 1000 μM. Cell viability was determined using CellTiter Glo (Promega). […] Cell viability analysis was determined using CellTiter Glo. IC50 values were calculated using GraphPad Prism.

MO7e cells = experiment: as above; assay type: cell-based, Human; settings: MO7e; 6MP 10 μM (sublethal), in words
Method: as §1

[2] = tested on: mitochondrial function of MO7e and ABCC4 KO MO7e cells; experiment: Mitochondrial function (relative ATP, TMRE, MitoTracker Green); assay type: cell-based, Human; settings: 10 nM
Method: WT and ABCC4 KO MO7e cells were treated with DMSO or 10 nM Antimycin A before incubation with TMRE or MitoTracker Green (Life Technologies) for 15 min. After incubation, cells were analyzed with BD Biosciences flow cytometer and mean fluorescence intensity was calculated. Relative ATP amounts were determined by the CellTiter Glo Assay.

Meg01 cells = experiment: 6MP cytotoxicity in Meg01 cells; assay type: cell-based, Human; settings: Antimycin A 10 nM, in words
Method: HEK293 cells transfected with ABCC4 or ABCC4ΔC in the presence or absence of MPP1, MO7e, and Meg01 cells were treated with 10 concentrations of 6MP, ranging from 1 to 1000 µM, for 96 h. Cell viability analysis was determined using CellTiter Glo (Promega). Where applicable, cell penetrating peptides conjugated to the PDZ-binding motif of ABCC4 (labeled either ABCC4-PDZ or ABCC4ΔC) were added to the cells at 20 μM. Media was changed daily and new ABCC4-PDZ/ABCC4ΔC peptide and 6MP was added. IC50 values were calculated using GraphPad Prism.
The Meg01, MO7e, and ABCC4 KO MO7e cell lines were plated at 1500 cells per well in a 96-well plate. Cells were treated with 10 concentrations of Antimycin A (Santa Cruz) ranging from 0.01 to 1000 μM. Cell viability was determined using CellTiter Glo (Promega). Meg01, MO7e, and ABCC4 KO MO7e cells in the presence or absence of 10 nM Antimycin A were treated with 10 concentrations of 6MP, ranging from 1 to 1000 µM, for 96 h. Cell viability analysis was determined using CellTiter Glo. IC50 values were calculated using GraphPad Prism.

[3] = tested on: murine hematopoietic progenitor cells (HPC); experiment: Hematopoietic progenitor cell serial replating in methylcellulose
Method: In these experiments, littermates were used as controls. Bone marrow from 8- to 12-week-old female virgin C57/BL6 mice were harvested. Progenitors were enriched by incubating with lineage-PE antibodies (CD4, CD8, Mac1, Gr1, NK1.1, B220, and Ter119) and separated using AutoMACS Pro (Miltenyi). Hematopoetic progenitor cells were cultured in the presence of recombinant murine SCF (rmSCF), IL3 (rmIL3), and IL6 (rmIL6) (Peprotech; all 50 ng/ml) for 48 h before transduction on RetroNectin (Takara) coated plates. Retroviral supernatant containing media was produced by transient transfection of HEK293T cells with MSCV based retroviral plasmids encoding either MYCN-ires-YFP or MPP1-ires-CFP as previously described[35]. Forty-eight hours post transduction, cells were harvested, sorted for either YFP or CFP expression, and plated on methylcellulose containing IL3, IL6, SCF, and EPO (Stem Cell Technologies). Colonies were counted after 7 days growth at 37 °C, harvested, and replated.

[4] = tested on: primary AML cells from adult patients; experiment: Annexin V/PI apoptosis in primary AML patient samples; assay type: cell-based, Human; settings: 50 or 100 µM cytarabine + 10 nM Antimycin A 4 h, then 44 h ± Antimycin A; triplicates; in words
Method: Primary AML cells from adult patients were treated with either vehicle, 50 or 100 µM cytarabine, 10 nM Antimycin A, or the combination of 50 or 100 µM cytarabine + 10 nM Antimycin A for 4 h. Post treatment, the cells were washed with fresh media (2×) and resuspended in the absence or presence of 10 nM Antimycin A and cultured for an additional 44 h (for a total treatment time of 48 h). The cells were then stained with Annexin V-fluorescein isothiocyanate (FITC)/propidium iodide (PI) apoptosis Kit (Beckman Coulter; Brea, CA, USA). The stage of apoptotic cells (Annexin V-positive, but early or late apoptosis) is identified by the proportion of AnnexinV+/PI− (early apoptosis) and Annexin V+/PI+ (late apoptosis) cells. This experiment was performed once in triplicates (presented as average ± SEM) due to the limited sample availability. Patient samples were selected based on the availability of an adequate number of cells to perform the assay.

[5] = tested on: ABCC4 at the plasma membrane; experiment: Surface biotinylation of ABCC4; assay type: cell-based; settings: Antimycin A, Fig. 6f, in words
Method: MO7e, Meg01, or transfected HEK293 cells were treated with trypsin, washed in PBS (pH 8) and incubated with 0.8 mM EZ-Link Sulfo-NHS-SS-Biotin (Pierce) solution for 30 min at room temperature with gentle agitation. Following incubation, the biotin molecules were quenched with 25 mM tris (pH 8) solution containing 0.1 M glycine before cell lysis using MPER (Thermo Scientific) containing a protease inhibitor cocktail (Roche). A volume of 20 µl of the lysate was removed for the total lysate control and the remaining lysate was incubated with avidin-agarose beads (Pierce) for 18 h on a rotatory shaker at 4 °C. The agarose beads attached to cell surface proteins were then separated from the lysate containing cytosolic proteins by centrifugation and the three samples (input, supernatant and pellet) were analyzed by immunoblotting.

For `CCCCCC[C@H]1C(=O)O[C@H](C)[C@H](NC(=O)c2cccc(NC=O)c2O)C(=O)O[C@@H](C)[C@@H]1OC(=O)CC(C)C` [Antimycin A], the IC50 ([1]; MO7e ABCC4 KO cells, MO7e ABCC4 KO) was 1.7 µM, the IC50 ([1]; MO7e cells, MO7e) was 2.2 µM and the “Antimycin A cytotoxicity in combination with non-cytotoxic 6MP” value (MO7e cells) was “sensitizes MO7e cells to Antimycin A; also recorded: shifted the Antimycin A survival curve to the left indicating greater toxicity when an ABCC4 substrate was present”. For the same compound, the “relative ATP” value ([2]; CellTiter Glo, triplicate) was “Equal relative”, the “effect on mitochondrial function” value ([2]; in words) was “does not selectively affect the mitochondrial; also recorded: minimal effect on mitochondria; also recorded: not exclusively disruptive to mitochondrial function in cells lacking or containing ABCC4” and the “effect of Antimycin A on 6MP sensitivity” value (Meg01 cells) was “sensitized to 6MP by Antimycin A (10 nM)”. The “effect on MPP1-driven methylcellulose replating” value ([3]; HPC transduced with MPP1, Antimycin A 10 nM, triplicate) was “blocked replating of MPP1 overexpressing HSC; also recorded: attenuated”, the “effect on colony formation of normal hematopoietic progenitors” value ([3]; normal hematopoietic progenitors, Antimycin A 10 nM (peer review file)) was “did not effect; also recorded: does not reduce the” and the “Antimycin A enhancement of cytarabine-induced apoptosis in primary AML samples” value [4] was “Three of the 5 patients; also recorded: enhanced cytarabine cytoxicity in three primary AML patient samples; also recorded: did not show enhancement on cytarabine-induced apoptosis; also recorded: increased Annexin V^+ percentage of cells with combination treatment of Antimycin A and cytarabine vs cytarabine alone”. For the same compound, the “surface / plasma membrane ABCC4” value [5] was “reduces ABCC4 at the plasma membrane”.
